Experimental data as given in article PMC4149842 (ChemMedChem, 2014).
Read-outs that look alike come from different tables or passages of the source.

How the values were obtained:
[1] = molecular target: T1, human equilibrative nucleoside transporter 1 (hENT1) (Homo sapiens, UniProt Q99808); test: inhibition of initial rate of 3H-uridine; type: cell-based
T1 sequence (Q99808 2-456): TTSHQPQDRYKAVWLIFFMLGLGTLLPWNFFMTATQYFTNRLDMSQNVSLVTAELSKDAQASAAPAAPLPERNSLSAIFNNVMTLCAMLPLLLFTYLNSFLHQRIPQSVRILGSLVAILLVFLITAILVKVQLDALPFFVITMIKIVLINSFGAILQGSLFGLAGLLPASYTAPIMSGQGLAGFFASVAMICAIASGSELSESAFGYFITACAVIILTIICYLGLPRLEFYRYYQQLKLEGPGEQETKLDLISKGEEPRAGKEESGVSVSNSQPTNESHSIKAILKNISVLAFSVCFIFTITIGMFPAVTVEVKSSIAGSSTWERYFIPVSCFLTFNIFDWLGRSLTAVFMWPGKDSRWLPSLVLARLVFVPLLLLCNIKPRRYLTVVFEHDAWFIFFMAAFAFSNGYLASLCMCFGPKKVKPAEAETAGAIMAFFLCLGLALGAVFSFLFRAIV

[2] = molecular target: T1, human equilibrative nucleoside transporter 1 (hENT1); test: inhibition of initial rate of 3H-uridine; type: cell-based; remark: listed apart in the source

How did the IC50 [1] turn out when `O=[N+]([O-])c1ccc(CNc2ncnc3c2ccn3[C@@H]2O[C@H](CO)[C@@H](O)[C@H]2O)cc1` [2b, 4-(4-Nitrobenzylamino)-7-(β-D-ribofuranosyl)pyrrolo[2,3-d]pyrimidine] was run?
Its IC50 is > 1000 nM.

`NC(=O)c1cn([C@@H]2O[C@H](CO)[C@@H](O)[C@H]2O)c2ncnc(NCc3ccc([N+](=O)[O-])cc3)c12` [2c, 5-Carboxamido-4-(4-nitrobenzylamino)-7-(β-D-ribofuranosyl)pyrrolo[2,3-d]pyrimidine] was tested. Which IC50 [2] did it give?
The IC50 was 123 ± 31 nM.
